The values below come from article PMC5974779, “Prediction of Drug-Induced Hepatotoxicity Using Long-Term Stable Primary Hepatic 3D Spheroid Cultures in Chemically Defined Conditions” (Toxicological Sciences, 2018).

The conditions of data set [1]: cited from earlier work.
The subject of data set [2] is clinical DILI in man. The following applies: in vivo; cited from earlier work.
The subject of data set [3] is primary human hepatocytes (PHH) 3D spheroids.
For data set [4], the system named is PHH 2D sandwich cultures. The note with it: cited from earlier work; for hepatotoxicity detection in 2D sandwich cultures of PHH: 100× cmax, 24 h, high content imaging.
Where [5] appears, read: therapeutic total cmax, ref PMID.
Where [6] appears, read: PHH 2D sandwich cultures, 100x Cmax, ref Xu 2008.

The structures appear in SMILES notation. Counter-ions that a name gives are not always drawn. Like-named read-outs stand apart in the source and are kept apart here.

By Cmax is commonly meant the maximum level reached in the sampled fluid or tissue. Take `CCCSc1ccc2nc(NC(=O)OC)[nH]c2c1` [Albendazole]: the highest concentration (Cmax) in data set [1] (setting [5]) was 900 nM. In addition, in data set [2], the Classified as result is reported as “POS”, the “Clinical DILI class (panel heading of Figure 4)” value (from here on “Clinical DILI class”) was “Severe DILI”, the DILI in vivo entry is “POS” and the “FDA (0-8)” value is reported as 7. Further, in data set [2], the “Suzuki et al. (2010)” value is on record as 1, the “Type of DILI” value is given as “Cholestatic injury or Mixed hepatitis” and the “Xu et al. (2008)” value is “Positive”. Further, in data set [3], the “Chemically defined spheroids (this study) 20x” value (“Chemically defined spheroids” for short) is reported as “Negative” and the “hepatotoxicity evaluation in CD-spheroids” value is on record as “predicted to be DILI negative”. Further, in data set [4] (ref Xu et al., 2008), the “hepatotoxicity detection in 2D sandwich cultures of PHH” value (“hepatotoxicity detection” for short) is recorded as “flagged as hepatotoxic” and the “reactive oxygen species levels in 2D sandwich cultures of PHH” value is “only slight increases in reactive oxygen species levels”. In addition, the “2Dsw (Xu 2008) 100x” value in data set [4] (setting [6]) was “Positive”.

On to `NC12CC3CC(CC(C3)C1)C2` [Amantadine], for which the peak concentration (Cmax) in data set [1] (setting [5]) was 4300 nM. For the same molecule, in data set [2], the Classified as entry was “NEG”, the “Clinical DILI class” value is “DILI negative”, the DILI in vivo result was “NEG” and the “FDA (0-8)” value is listed as 3. In data set [2], the “FDA (Severity)” value is given as “less DILI concern”, the “Type of DILI” value is on record as “Non-hepatotoxic” and the “Xu et al. (2008)” value is given as “Negative”. Moreover, the “Chemically defined spheroids” value in data set [3] is “Negative”. Also, in data set [4], the “2Dsw (Xu 2008) 100x” value is recorded as “Negative”.

As for `N=C(N)NC(=O)c1nc(Cl)c(N)nc1N` [Amiloride], in data set [1] (setting [5]), the Cmax was 87 nM. In data set [2], the Classified as result is listed as “NEG”, the “Clinical DILI class” value was “DILI negative”, the DILI in vivo result is on record as “NEG” and the “FDA (0-8)” value is given as 3. For the same molecule, in data set [2], the “Suzuki et al. (2010)” value is reported as 2, the “Type of DILI” value is “Non-hepatotoxic” and the “Xu et al. (2008)” value is “Negative”. The “Chemically defined spheroids” value in data set [3] is “Negative”. The “2Dsw (Xu 2008) 100x” value in data set [4] was “Negative”.

In the case of `CC(C)NCC(O)COc1ccc(CC(N)=O)cc1` (centres unmarked) [Atenolol], in data set [4] (setting [6]), the “2Dsw (Xu 2008) 100x” value was “Negative”.

Consider `CCC(=O)OCC(=O)[C@@]1(OC(=O)CC)[C@@H](C)C[C@H]2[C@@H]3CCC4=CC(=O)C=C[C@]4(C)[C@@]3(Cl)[C@@H](O)C[C@@]21C` [Beclomethasone Dipropionate], for which, in data set [1] (setting [5]), the Cmax was 0.15 nM. In addition, the “Chemically defined spheroids” value in data set [3] is reported as “Negative”.

Take `CN(C)CCC(c1ccc(Br)cc1)c1ccccn1` (centres unmarked) [Brompheniramine Maleate]: in data set [1] (setting [5]), the Cmax was 27 nM. In data set [3], the “Chemically defined spheroids” value is on record as “Negative”.

For `CN(C)CCCN1c2ccccc2CCc2ccc(Cl)cc21` [Clomipramine], in data set [3], the “Chemically defined spheroids” value was “Positive”. The “hepatotoxicity detection” value in data set [4] (ref Xu et al., 2008) is “liver toxicity was not recognized”.

Consider `O=c1ccc2ccccc2o1` [Coumarin], for which, in data set [1] (setting [5]), the highest concentration (Cmax) was 10000 nM. In data set [2], the Classified as result is listed as “POS”, the “Clinical DILI class” value is recorded as “High DILI concern”, the DILI in vivo entry is given as “POS” and the “Type of DILI” value was “Cholestatic injury”. The “Chemically defined spheroids” value in data set [3] is recorded as “Positive”.

Regarding `CCN(CC)C(=O)N1CCN(C)CC1` [Diethylcarbamazine], the Cmax in data set [1] (setting [5]) is 1630 nM. The “Chemically defined spheroids” value in data set [3] is reported as “Negative”.

`COc1ccc([C@@H]2Sc3ccccc3N(CCN(C)C)C(=O)[C@@H]2OC(C)=O)cc1` [Diltiazem]: the Cmax in data set [1] (setting [5]) was 327 nM. In addition, the “Chemically defined spheroids” value in data set [3] is given as “Negative”.

Turning to `CCN(CC)C(=S)SSC(=S)N(CC)CC` [Disulfiram], the Cmax in data set [1] (setting [5]) was 1350 nM. In data set [3], the “Chemically defined spheroids” value is listed as “Positive”.

As for `NS(=O)(=O)c1cc(C(=O)O)c(NCc2ccco2)cc1Cl` [Furosemide], in data set [4] (setting [6]), the “2Dsw (Xu 2008) 100x” value is “Negative”.

For `C[C@]12CCC(=O)C=C1CC[C@@H]1[C@@H]2[C@@H](O)C[C@@]2(C)[C@H]1CC[C@]2(O)C(=O)CO` [Hydrocortisone], the Cmax in data set [1] (setting [5]) is 840 nM. In addition, in data set [2], the Classified as entry is reported as “NEG”, the “Clinical DILI class” value was “DILI negative”, the DILI in vivo result is given as “NEG” and the “FDA (0-8)” value is given as 0. In data set [2], the “Type of DILI” value is “Non-hepatotoxic” and the “Xu et al. (2008)” value is recorded as “Negative”. Besides, the “Chemically defined spheroids” value in data set [3] is on record as “Negative”. The “2Dsw (Xu 2008) 100x” value in data set [4] (setting [6]) is given as “Negative”.

With `N[C@@H](Cc1ccc(O)c(O)c1)C(=O)O` [Levodopa], the Cmax in data set [1] (setting [5]) is 6850 nM. The “Chemically defined spheroids” value in data set [3] is “Negative”. Besides, the “2Dsw (Xu 2008) 100x” value in data set [4] (setting [6]) was “Negative”.

As for `NCCCC[C@H](N[C@@H](CCc1ccccc1)C(=O)O)C(=O)N1CCC[C@H]1C(=O)O` [Lisinopril], the Cmax in data set [1] (setting [5]) is 660 nM. In addition, the “Chemically defined spheroids” value in data set [3] is “Positive”. Besides, the “hepatotoxicity detection” value in data set [4] (ref Xu et al., 2008) is given as “liver toxicity was not recognized”.

Take `CN(C)C(=O)C(CCN1CCC(O)(c2ccc(Cl)cc2)CC1)(c1ccccc1)c1ccccc1` [Loperamide]: the Cmax in data set [1] (human, in vivo) is 7.8 nM.

Turning to `Cc1cccc(C)c1OCC(C)N` (centres unmarked) [Mexiletine], the highest concentration (Cmax) in data set [1] (setting [5]) is 35000 nM. For the same molecule, in data set [2], the Classified as entry is reported as “POS”, the “Clinical DILI class” value was “High DILI concern”, the DILI in vivo result was “POS” and the “FDA (0-8)” value is 3. Further, in data set [2], the “FDA (Severity)” value is on record as “less DILI concern”, the “Suzuki et al. (2010)” value is 1, the “Type of DILI” value is on record as “Hepatocellular injury or Mixed hepatitis” and the “Xu et al. (2008)” value is recorded as “Positive”. In data set [3], the “Chemically defined spheroids” value is on record as “Positive”. The “2Dsw (Xu 2008) 100x” value in data set [4] is reported as “Positive”.

With `Clc1ccc(COC(Cn2ccnc2)c2ccc(Cl)cc2Cl)c(Cl)c1` (centres unmarked) [Miconazole], the Cmax in data set [1] (setting [5]) is 24 nM. Further, the “Chemically defined spheroids” value in data set [3] is “Negative”.

In the case of `CCc1c(C)[nH]c2c1C(=O)C(CN1CCOCC1)CC2` (centres unmarked) [Molindone], the Cmax in data set [1] (setting [5]) was 1540 nM. Also, in data set [2], the Classified as result was “POS”, the “Clinical DILI class” value is listed as “High DILI concern”, the DILI in vivo entry is recorded as “POS” and the “Type of DILI” value was “Hepatocellular injury”. Also, the “Chemically defined spheroids” value in data set [3] was “Negative”. In data set [4] (setting [6]), the “2Dsw (Xu 2008) 100x” value is recorded as “Negative”.

Regarding `COC(=O)C1=C(C)NC(C)=C(C(=O)OCCN(C)Cc2ccccc2)C1c1cccc([N+](=O)[O-])c1` (centres unmarked) [Nicardipine], the Cmax in data set [1] (setting [5]) was 80 nM.

On to `COCCOC(=O)C1=C(C)NC(C)=C(C(=O)OC(C)C)C1c1cccc([N+](=O)[O-])c1` (centres unmarked) [Nimodipine], for which, in data set [1] (setting [5]), the Cmax is 110 nM. The “Chemically defined spheroids” value in data set [3] is on record as “Positive”. Moreover, the “2Dsw (Xu 2008) 100x” value in data set [4] (setting [6]) is given as “Positive”.

As to `CC(N/C(=N\C#N)Nc1ccncc1)C(C)(C)C` (centres unmarked) [Pinacidil], in data set [1] (setting [5]), the Cmax is 290 nM. In addition, in data set [2], the Classified as result was “NEG”, the “Clinical DILI class” value is given as “DILI negative”, the DILI in vivo entry was “NEG” and the “Type of DILI” value is listed as “Non-hepatotoxic”. Besides, in data set [3], the “Chemically defined spheroids” value is reported as “Negative”. In data set [4] (setting [6]), the “2Dsw (Xu 2008) 100x” value is given as “Negative”.

`CC(C)NCC(O)COc1cccc2[nH]ccc12` (centres unmarked) [Pindolol]: in data set [1] (setting [5]), the Cmax was 270 nM. In addition, in data set [2], the Classified as result is given as “NEG”, the “Clinical DILI class” value is on record as “DILI negative”, the DILI in vivo entry is listed as “NEG” and the “FDA (0-8)” value is on record as 0. Besides, in data set [2], the “Type of DILI” value was “Non-hepatotoxic” and the “Xu et al. (2008)” value is “Negative”. The “2Dsw (Xu 2008) 100x” value in data set [4] (setting [6]) is reported as “Negative”.

In the case of `CC(=O)Nc1ccc(OCC(O)CNC(C)C)cc1` (centres unmarked) [Practolol], the Cmax in data set [1] (setting [5]) was 18800 nM. For the same molecule, in data set [3], the “Chemically defined spheroids” value is given as “Negative”.

Regarding `C=C[C@H]1C[N@@]2CC[C@H]1C[C@@H]2[C@@H](O)c1ccnc2ccc(OC)cc12` [Quinidine], the Cmax in data set [1] (setting [5]) is 8660 nM. Moreover, the “Chemically defined spheroids” value in data set [3] is “Positive”. Also, in data set [4], the “2Dsw (Xu 2008) 100x” value is “Positive”.

Regarding `O=C(O)c1cc(/N=N/c2ccc(S(=O)(=O)Nc3ccccn3)cc2)ccc1O` [Sulfasalazine], the maximum concentration (Cmax) in data set [1] (setting [5]) was 15100 nM. Also, the “Chemically defined spheroids” value in data set [3] is reported as “Positive”.

For `CN(C)[C@@H]1C(O)=C(C(N)=O)C(=O)[C@@]2(O)C(O)=C3C(=O)c4c(O)cccc4[C@@](C)(O)[C@H]3C[C@@H]12` [Tetracycline], in data set [2], the Classified as entry is “POS”, the “Clinical DILI class” value is recorded as “High DILI concern”, the DILI in vivo result was “POS” and the “FDA (0-8)” value is on record as 2. In addition, in data set [2], the “FDA (Severity)” value is reported as “less DILI concern”, the “Guo et al. (2005)” value was 3, the “O'Brien et al. (2003)” value was “Moderately” and the “Sakatis et al. (2012)” value is reported as “Hepatotoxic”. Moreover, in data set [2], the “Suzuki et al. (2010)” value is 1, the “Type of DILI” value was “Hepatocellular injury” and the “Xu et al. (2008)” value is listed as “Positive”.

For `CC(=O)CC(c1ccccc1)c1c(O)c2ccccc2oc1=O` (centres unmarked) [Warfarin], in data set [1] (setting [5]), the Cmax was 4860 nM. In addition, in data set [3], the “Chemically defined spheroids” value is “Negative”.
